Measured values: patent US10793580B2, “Substituted pyrazoloazepin-8-ones and their use as phosphodiesterase inhibitors” (LEO Pharma A/S, priority 2016, dated 2020)

Molecular target: human PDE4D catalytic domain (Homo sapiens (Human), UniProt Q08499)
Test: PDE4 Assay (TR-FRET, FAM-cAMP cleavage)
Assay type: biochemical
Details: human PDE4D catalytic domain (UniProt Q08499 [S380-L740]); 50% inhibition of substrate cleavage; read-out: PDE4 IC50 range
Method: The human PDE4D catalytic domain (UniProt no. Q08499 [S380-L740]) was incubated with a mixture of non-labelled cAMP (cyclic adenosine monophosphate) and fluorescein amidite (FAM) conjugated cAMP and titrated test or reference Compound. Following brief incubation the enzymatic reaction was stopped by addition of binding buffer containing nanoparticles with immobilized trivalent metal ions capable of binding 1) AMP phospho groups and 2) terbium (Tb) donor fluorophores. Subsequent excitation of the Tb donor triggers time-resolved FRET to adjacent FAM acceptor molecules resulting in light emission. In the presence of a PDE4 inhibitor, AMP generation was reduced resulting in a lower fluorescence signal. The cAMP phosphodiester is not bound by the detection system.
The results were calculated as the molar concentrations resulting in 50% inhibition of the substrate cleavage compared to controls samples, and are expressed as a range of IC50 (nM).

Sequence of human PDE4D catalytic domain (Q08499 380-740): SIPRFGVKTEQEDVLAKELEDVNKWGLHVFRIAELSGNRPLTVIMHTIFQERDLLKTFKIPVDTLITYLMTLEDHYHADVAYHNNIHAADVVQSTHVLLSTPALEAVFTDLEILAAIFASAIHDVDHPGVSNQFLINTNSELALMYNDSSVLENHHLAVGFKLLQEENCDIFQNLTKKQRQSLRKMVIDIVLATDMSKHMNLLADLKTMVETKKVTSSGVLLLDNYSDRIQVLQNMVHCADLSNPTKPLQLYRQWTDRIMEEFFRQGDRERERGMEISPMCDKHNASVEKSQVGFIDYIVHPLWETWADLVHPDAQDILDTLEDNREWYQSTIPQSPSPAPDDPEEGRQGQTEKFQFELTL

Row | Structure (SMILES) | IC50
1 | CCn1nc(CCCOC(=O)c2ccc(OC)c(C)c2)c2c1C(=O)NCC1(CCOCC1)C2 [Example 33, 3-(1-ethyl-8-oxo-spiro[6,7-dihydro-4H-pyrazolo[3,4-c]azepine-5,4′-tetrahydropyran]-3-yl)propyl 4-methoxy-3-methyl-benzoate] | < 100 nM
2 | CCn1nc(CCCOC(=O)c2ccc(C)cc2OC)c2c1C(=O)NCC1(CCOCC1)C2 [Example 34, 3-(1-ethyl-8-oxo-spiro[6,7-dihydro-4H-pyrazolo[3,4-c]azepine-5,4′-tetrahydropyran]-3-yl)propyl 2-methoxy-4-methyl-benzoate] | < 100 nM
3 | CCn1nc(CCCOC(=O)c2ccc(OC)c(F)c2)c2c1C(=O)NCC1(CCOCC1)C2 [Example 35, 3-(1-ethyl-8-oxo-spiro[6,7-dihydro-4H-pyrazolo[3,4-c]azepine-5,4′-tetrahydropyran]-3-yl)propyl 3-fluoro-4-methoxy-benzoate] | < 100 nM
4 | CCn1nc(CCCOC(=O)c2ccc(F)c(OC)c2)c2c1C(=O)NCC1(CCOCC1)C2 [Example 36, 3-(1-ethyl-8-oxo-spiro[6,7-dihydro-4H-pyrazolo[3,4-c]azepine-5,4′-tetrahydropyran]-3-yl)propyl 4-fluoro-3-methoxy-benzoate] | < 100 nM
5 | CCn1nc(CCCOC(=O)c2cc(OC)ccc2F)c2c1C(=O)NCC1(CCOCC1)C2 [Example 37, 3-(1-ethyl-8-oxo-spiro[6,7-dihydro-4H-pyrazolo[3,4-c]azepine-5,4′-tetrahydropyran]-3-yl)propyl 2-fluoro-5-methoxy-benzoate] | < 100 nM
6 | CCn1nc(CCCOC(=O)c2ccc(OC)cc2F)c2c1C(=O)NCC1(CCOCC1)C2 [Example 38, 3-(1-ethyl-8-oxo-spiro[6,7-dihydro-4H-pyrazolo[3,4-c]azepine-5,4′-tetrahydropyran]-3-yl)propyl 2-fluoro-4-methoxy-benzoate] | < 100 nM
7 | CCn1nc(CCCOC(=O)c2cccc(OC)c2F)c2c1C(=O)NCC1(CCOCC1)C2 [Example 39, 3-(1-ethyl-8-oxo-spiro[6,7-dihydro-4H-pyrazolo[3,4-c]azepine-5,4′-tetrahydropyran]-3-yl)propyl 2-fluoro-3-methoxy-benzoate] | < 100 nM
8 | CCn1nc(CCCOC(=O)c2ccc(F)cc2OC)c2c1C(=O)NCC1(CCOCC1)C2 [Example 40, 3-(1-ethyl-8-oxo-spiro[6,7-dihydro-4H-pyrazolo[3,4-c]azepine-5,4′-tetrahydropyran]-3-yl)propyl 4-fluoro-2-methoxy-benzoate] | < 100 nM
9 | CCn1nc(CCCOC(=O)c2c(F)cccc2OC)c2c1C(=O)NCC1(CCOCC1)C2 [Example 41, 3-(1-ethyl-8-oxo-spiro[6,7-dihydro-4H-pyrazolo[3,4-c]azepine-5,4′-tetrahydropyran]-3-yl)propyl 2-fluoro-6-methoxy-benzoate] | < 100 nM
10 | CCn1nc(CCCOC(=O)c2ccc(C)cc2Cl)c2c1C(=O)NCC1(CCOCC1)C2 [Example 42, 3-(1-ethyl-8-oxo-spiro[6,7-dihydro-4H-pyrazolo[3,4-c]azepine-5,4′-tetrahydropyran]-3-yl)propyl 2-chloro-4-methyl-benzoate] | < 100 nM
11 | CCn1nc(CCCOC(=O)c2ccc(Cl)cc2C)c2c1C(=O)NCC1(CCOCC1)C2 [Example 43, 3-(1-ethyl-8-oxo-spiro[6,7-dihydro-4H-pyrazolo[3,4-c]azepine-5,4′-tetrahydropyran]-3-yl)propyl 4-chloro-2-methyl-benzoate] | < 100 nM
12 | CCn1nc(CCCOC(=O)c2cc(Cl)ccc2C)c2c1C(=O)NCC1(CCOCC1)C2 [Example 44, 3-(1-ethyl-8-oxo-spiro[6,7-dihydro-4H-pyrazolo[3,4-c]azepine-5,4′-tetrahydropyran]-3-yl)propyl 5-chloro-2-methyl-benzoate] | < 100 nM
13 | CCn1nc(CCCOC(=O)c2ccc(C(F)F)cc2)c2c1C(=O)NCC1(CCOCC1)C2 [Example 45, 3-(1-ethyl-8-oxo-spiro[6,7-dihydro-4H-pyrazolo[3,4-c]azepine-5,4′-tetrahydropyran]-3-yl)propyl 4-(difluoromethyl)benzoate] | < 100 nM
14 | CCn1nc(CCCOC(=O)c2cc(F)ccc2Cl)c2c1C(=O)NCC1(CCOCC1)C2 [Example 46, 3-(1-ethyl-8-oxo-spiro[6,7-dihydro-4H-pyrazolo[3,4-c]azepine-5,4′-tetrahydropyran]-3-yl)propyl 2-chloro-5-fluoro-benzoate] | < 100 nM
15 | CCn1nc(CCCOC(=O)c2cc(F)cc(Cl)c2)c2c1C(=O)NCC1(CCOCC1)C2 [Example 47, 3-(1-ethyl-8-oxo-spiro[6,7-dihydro-4H-pyrazolo[3,4-c]azepine-5,4′-tetrahydropyran]-3-yl)propyl 3-chloro-5-fluoro-benzoate] | < 100 nM
16 | CCn1nc(CCCOC(=O)c2ccc(Cl)c(F)c2)c2c1C(=O)NCC1(CCOCC1)C2 [Example 48, 3-(1-ethyl-8-oxo-spiro[6,7-dihydro-4H-pyrazolo[3,4-c]azepine-5,4′-tetrahydropyran]-3-yl)propyl 4-chloro-3-fluoro-benzoate] | < 100 nM
17 | CCn1nc(CCCOC(=O)c2cccc(F)c2Cl)c2c1C(=O)NCC1(CCOCC1)C2 [Example 49, 3-(1-ethyl-8-oxo-spiro[6,7-dihydro-4H-pyrazolo[3,4-c]azepine-5,4′-tetrahydropyran]-3-yl)propyl 2-chloro-3-fluoro-benzoate] | < 100 nM
18 | CCn1nc(CCCOC(=O)c2cccc(Cl)c2F)c2c1C(=O)NCC1(CCOCC1)C2 [Example 50, 3-(1-ethyl-8-oxo-spiro[6,7-dihydro-4H-pyrazolo[3,4-c]azepine-5,4′-tetrahydropyran]-3-yl)propyl 3-chloro-2-fluoro-benzoate] | < 100 nM
19 | CCn1nc(CCCOC(=O)c2cc(Cl)ccc2F)c2c1C(=O)NCC1(CCOCC1)C2 [Example 51, 3-(1-ethyl-8-oxo-spiro[6,7-dihydro-4H-pyrazolo[3,4-c]azepine-5,4′-tetrahydropyran]-3-yl)propyl 5-chloro-2-fluoro-benzoate] | < 100 nM
20 | CCn1nc(CCCOC(=O)c2c(F)cccc2Cl)c2c1C(=O)NCC1(CCOCC1)C2 [Example 52, 3-(1-ethyl-8-oxo-spiro[6,7-dihydro-4H-pyrazolo[3,4-c]azepine-5,4′-tetrahydropyran]-3-yl)propyl 2-chloro-6-fluoro-benzoate] | < 100 nM
21 | CCn1nc(CCCOC(=O)c2ccc(Cl)cc2F)c2c1C(=O)NCC1(CCOCC1)C2 [Example 53, 3-(1-ethyl-8-oxo-spiro[6,7-dihydro-4H-pyrazolo[3,4-c]azepine-5,4′-tetrahydropyran]-3-yl)propyl 4-chloro-2-fluoro-benzoate] | < 100 nM
22 | CCn1nc(CCCOC(=O)c2ccc(F)c(Cl)c2)c2c1C(=O)NCC1(CCOCC1)C2 [Example 54, 3-(1-ethyl-8-oxo-spiro[6,7-dihydro-4H-pyrazolo[3,4-c]azepine-5,4′-tetrahydropyran]-3-yl)propyl 3-chloro-4-fluoro-benzoate] | < 100 nM
23 | CCn1nc(CCCOC(=O)c2ccc(Cl)c(OC)c2)c2c1C(=O)NCC1(CCOCC1)C2 [Example 55, 3-(1-ethyl-8-oxo-spiro[6,7-dihydro-4H-pyrazolo[3,4-c]azepine-5,4′-tetrahydropyran]-3-yl)propyl 4-chloro-3-methoxy-benzoate] | < 100 nM
24 | CCn1nc(CCCOC(=O)c2cc(OC)ccc2Cl)c2c1C(=O)NCC1(CCOCC1)C2 [Example 56, 3-(1-ethyl-8-oxo-spiro[6,7-dihydro-4H-pyrazolo[3,4-c]azepine-5,4′-tetrahydropyran]-3-yl)propyl 2-chloro-5-methoxy-benzoate] | < 100 nM
25 | CCn1nc(CCCOC(=O)c2cccc(OC)c2Cl)c2c1C(=O)NCC1(CCOCC1)C2 [Example 57, 3-(1-ethyl-8-oxo-spiro[6,7-dihydro-4H-pyrazolo[3,4-c]azepine-5,4′-tetrahydropyran]-3-yl)propyl 2-chloro-3-methoxy-benzoate] | < 100 nM
26 | CCn1nc(CCCOC(=O)c2ccc(OC)c(Cl)c2)c2c1C(=O)NCC1(CCOCC1)C2 [Example 58, 3-(1-ethyl-8-oxo-spiro[6,7-dihydro-4H-pyrazolo[3,4-c]azepine-5,4′-tetrahydropyran]-3-yl)propyl 3-chloro-4-methoxy-benzoate] | < 100 nM
27 | CCn1nc(CCCOC(=O)c2cccc(Cl)c2OC)c2c1C(=O)NCC1(CCOCC1)C2 [Example 59, 3-(1-ethyl-8-oxo-spiro[6,7-dihydro-4H-pyrazolo[3,4-c]azepine-5,4′-tetrahydropyran]-3-yl)propyl 3-chloro-2-methoxy-benzoate] | < 100 nM
28 | CCn1nc(CCCOC(=O)c2cc(Cl)ccc2OC)c2c1C(=O)NCC1(CCOCC1)C2 [Example 60, 3-(1-ethyl-8-oxo-spiro[6,7-dihydro-4H-pyrazolo[3,4-c]azepine-5,4′-tetrahydropyran]-3-yl)propyl 5-chloro-2-methoxy-benzoate] | < 100 nM
29 | CCn1nc(CCCOC(=O)c2ccc(Cl)cc2OC)c2c1C(=O)NCC1(CCOCC1)C2 [Example 61, 3-(1-ethyl-8-oxo-spiro[6,7-dihydro-4H-pyrazolo[3,4-c]azepine-5,4′-tetrahydropyran]-3-yl)propyl 4-chloro-2-methoxy-benzoate] | < 100 nM
30 | CCn1nc(CCCOC(=O)c2ccc(C(F)(F)F)cc2)c2c1C(=O)NCC1(CCOCC1)C2 [Example 62, 3-(1-ethyl-8-oxo-spiro[6,7-dihydro-4H-pyrazolo[3,4-c]azepine-5,4′-tetrahydropyran]-3-yl)propyl 4-(trifluoromethyl)benzoate] | < 100 nM
